This note sets out measurements from PubChem BioAssay (NCI).

Holding throughout (assay): NCI anticancer screen, dose series, 48 h
Experiment [1] concerns OVCAR-4 ovarian.
Experiment [2] has as its system SF-268 CNS.
Experiment [3] has as its system UACC-62 melanoma.
Experiment [4] concerns CCRF-CEM leukemia.
Experiment [5] relates to HCC-2998 colon.
Experiment [6] has as its system IGROV1 ovarian.
Experiment [7] concerns NCI-H23 lung.
The subject of experiment [8] is SK-MEL-28 melanoma.

Each structure is given as a SMILES string.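 Each compound was tested at five concentrations against cells in 96-well plates for 48 hours. The concentration for full growth arrest is given as TGI.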

Regarding `CC1=CCCC(OC(N)=O)C1` (stereo unspecified), the TGI in experiment [1], in experiment [2], in experiment [3], in experiment [4], in experiment [5] and in experiment [6] was over 100 µM in each case. Besides, the TGI in experiment [7] was over 100 µM.
Take `COc1cc2c(cc1O)[C@H](Cc1ccc(Oc3cc(C[C@H]4c5cc(OC)c(OC)cc5CCN4C)ccc3OC)cc1)NCC2`: the TGI in experiment [1] turned out to be 27.1 µM; in experiment [8], 30.8 µM; in experiment [2], 23.7 µM; in experiment [3], 32.1 µM; in experiment [4], 37 µM; in experiment [5] it was 18.7 µM. Besides, the TGI amounted to 33 µM in experiment [6] and 24.2 µM in experiment [7].
Take `CN(C)CCNC(=O)c1cccc2nc3c(Cl)cccc3nc12`: the TGI in experiment [1] is 27.6 µM; in experiment [8], 15.9 µM; in experiment [3], 3.87 µM; in experiment [5], 43.1 µM; in experiment [6], over 86.4 µM; in experiment [7], 20.8 µM.
As for `CC(C)(C)C1=NC(S)NC(CCC(=O)Nc2ccccc2[N+](=O)[O-])=C1` (stereo unspecified), the TGI in experiment [1], in experiment [8], in experiment [2], in experiment [3], in experiment [4] and in experiment [5] was over 100 µM in each case. The TGI in experiment [6] and in experiment [7] was over 100 µM throughout.
Regarding `CC(=O)OCCc1cccnc1/C=N/O`, the TGI in experiment [1], in experiment [8], in experiment [2], in experiment [3], in experiment [4] and in experiment [5] was over 100 µM each time. Besides, the TGI in experiment [6] and in experiment [7] was over 100 µM each time.
As for `COC(=O)c1c(OC)cccc1C(=O)O`, the TGI in experiment [1], in experiment [2], in experiment [3], in experiment [4], in experiment [5] and in experiment [6] was over 100 µM throughout. Moreover, the TGI in experiment [7] was over 100 µM.
For `CCCCCCCCCCCCCCC1OC(=O)c2ccccc21` (stereo unspecified), the TGI in experiment [1], in experiment [8], in experiment [2], in experiment [3], in experiment [4] and in experiment [6] was over 100 µM throughout. Also, in experiment [7], the TGI is over 100 µM.
Take `CCCCn1/c(=N/C(=S)N(C)C)ss/c1=N\C(=S)N(C)C`: the TGI in experiment [1], in experiment [8], in experiment [2], in experiment [3], in experiment [4] and in experiment [5] was over 100 µM each time. For the same compound, the TGI in experiment [6] and in experiment [7] was over 100 µM in each case.
As to `Cc1c(C(=O)/C=C/c2cccc3ccccc23)[n+](=O)c2ccccc2n1[O-]`, the TGI turned out to be 15.7 µM in experiment [1]; 26.6 µM in experiment [8]; 29.3 µM in experiment [2]; 23.9 µM in experiment [3]; 16.8 µM in experiment [4]; 30.8 µM in experiment [5]. Also, the TGI amounted to 48.7 µM in experiment [6] and 25.7 µM in experiment [7].
On to `COc1ccc(N=Cc2cc(OC)c(OC)c(OC)c2)cc1`, for which the TGI in experiment [1], in experiment [8], in experiment [2], in experiment [3], in experiment [4] and in experiment [6] was over 100 µM in each case. Besides, the TGI in experiment [7] is over 100 µM.
With `O=C(N/N=C/c1cccc(O)c1O)N/N=C/c1cccc(O)c1O`, the TGI in experiment [1] was over 100 µM; in experiment [8] it was over 100 µM; in experiment [2] it was over 100 µM; in experiment [3], over 100 µM; in experiment [4] it was 38.5 µM; in experiment [6], over 100 µM. The compound also showed a TGI in experiment [7] of over 100 µM.
For `OCc1c(-c2cccc3ccccc23)sc(-c2cccc3ccccc23)c1CO`, the TGI in experiment [8] turned out to be 23.3 µM; in experiment [2], 26.9 µM; in experiment [3], 23.5 µM; in experiment [4] it was 46.5 µM; in experiment [5] it was 33.9 µM; in experiment [6], 28 µM. This compound also displayed a TGI in experiment [7] of 30.1 µM.
With `O=C(Nc1ccccc1[N+](=O)[O-])c1ccccc1`, the TGI in experiment [1], in experiment [8], in experiment [2], in experiment [3], in experiment [5] and in experiment [6] was over 100 µM each time. In experiment [7], this compound displayed a TGI of over 100 µM.
`COC(=O)C(CC(=O)c1cc2c(cc1I)OCO2)Cc1cc(OC)c(OC)c(OC)c1I` (stereo unspecified): the TGI in experiment [8], in experiment [2], in experiment [3], in experiment [4], in experiment [5] and in experiment [6] was over 100 µM in each case. The compound also gave a TGI in experiment [7] of over 100 µM.
For the compound `C/C(=N\NC(N)=S)c1ccc(C)cc1C`, the TGI in experiment [1], in experiment [3], in experiment [4], in experiment [5], in experiment [6] and in experiment [7] was over 100 µM throughout.
Take `O=C1CC[C@H]2CNC(=O)C[C@H]2C1`: the TGI in experiment [1], in experiment [8], in experiment [2], in experiment [3], in experiment [4] and in experiment [5] was over 100 µM throughout. Further, the TGI in experiment [6] and in experiment [7] was over 100 µM throughout.
In the case of `O=c1[nH]c(=O)n(C2CC(O)C(CO)O2)cc1C#Cc1c(F)c(F)c(F)c(F)c1F` (stereo unspecified), the TGI in experiment [1], in experiment [8], in experiment [2], in experiment [3], in experiment [4] and in experiment [5] was over 100 µM throughout. In experiment [7], this compound had a TGI of over 100 µM.
For `CN1CCCNCCN(CCc2ccccn2)CCCN(C)CC1`, the TGI is over 100 µM in experiment [1]; over 100 µM in experiment [8]; over 100 µM in experiment [2]; over 100 µM in experiment [3]; over 60 µM in experiment [4]; over 100 µM in experiment [5]. For the same compound, the TGI in experiment [6] and in experiment [7] was over 100 µM in each case.
